This note sets out measurements from patent US9018248B2, “Fatty acid derivatives of catechins and methods of their use” (Genesis Group Inc., priority 2010, dated 2015).

For orientation: pIC50 means the negative decadic logarithm of the IC50, by convention in mol/L.

For assay [1], the system named is LPS-induced NO production. The experiment in a line: LPS-induced NO production in RAW 264.7 macrophage (Griess reaction). Type of assay: cell-based, murine. The following applies: RAW 264.7 macrophage, nitrite by Griess reaction, read-out: IC50, inhibition against LPS-induced NO production. As for the experimental part: RAW 264.7 cells were cultured in Rosewell Park Memorial Institute (RPMI) 1640 media (without phenol red) supplemented with 10% endotoxin-free, heat-inactivated fetal calf serum, 100 units/ml penicillin, and 100 μg/ml streptomycin. When the cells reached a density of 2-3×10^6 cells/ml, they were activated by incubation in a medium containing E. coli lipopolysaccharide (LPS) (100 ng/ml). Various concentrations of compounds of the disclosure in dimethyl sulphoxide (DMSO) were added together with LPS. Cells were treated with 0.05% DMSO as the vehicle control. The stimulated murine macrophage cell line RAW 264.7 cells were washed with PBS and lysed in an ice-cold RIPA buffer (Tris-HCl, pH 7.2, 25 mM; 0.1% SDS; 1% Triton X-100; 1% sodium deoxycholate; 0.15 M NaCl; 1 mM EDTA) containing 1 mM phenylmethyl sulphonyl fluoride (PMSF), 10 μg/mL aprotinin, 1 mM sodium ortho-vanadate, and 5 μg/mL leupeptin. Protein concentrations were determined using the BCA method (Pierce, Rockford, Ill.). The samples (50 μg of protein) were mixed with 5-fold of sample buffer containing 0.3 M Tris-HCl (pH 6.8), 25% 2-mercaptoethanol, 12% sodium dodecyl sulphate (SDS), 25 mM EDTA, 20% glycerol, and 0.1% bromophenol blue. The mixtures were boiled at 100° C. for 5 min, prerun on a stacking gel, and then resolved by 12% SDS-polyacrylamide minigels at a constant current of 20 mA. For western blot, proteins on the gel were electro-transferred onto a […] immobile polyvinylidene fluoride (PVDF) membrane with a transfer buffer composed of 25 mM Tris-HCl (pH 8.9), 192 mM glycine, and 20% methanol, as described by Pan et al. (2000). Membrane blocking was then carried out at room temperature for 1 h in blocking solution (20 mM Tris-HCl pH 7.4, 125 mM NaCl, 0.2% Tween 20, 1% bovine serum albumin, and 0.1% sodium azide). The membrane was incubated with the primary antibody of iNOS and COX-2 at 4° C. overnight. The membranes were subsequently probed with selected IgG antibody conjugated to horseradish peroxidase (Transduction Laboratories, Lexington, Ky.) and visualized using enhanced chemiluminescence (ECL, Amersham). The densities of the bands were quantitated using a densitometer (AlphaImager 2200 System). All the membranes were stripped and reprobed for β-actin (Sigma Chemical Co., St. Louis, Mo.) as loading control. […] The inhibition of iNOS induction by compounds of the disclosure may be due to down regulation of iNOS gene expression. […] (7b) Inhibition Against LPS-Induced NO Production in RAW 264.7 Macrophage The LPS-induced NO production by the macrophages was determined as nitrite concentration in the culture medium according to the Griess reaction. […] The absorbance of the mixture at 550 nm was measured with an ELISA plate reader (Dynatech MR-7000; Dynatech Laboratories, Chantilly, Va., USA). […]
(In general: Nitrite, measured by Griess reagent, commonly stands in for NO production.)

For a further assay, the system named is supercoiled pBR322 DNA. The experiment in a line: Hydroxyl radical-induced DNA scission. The following applies: 1 μM test compounds, H2O2/Fe2SO4, 37° C., 1 hour, FIG. 2. As for the experimental part: For hydroxyl radical-induced DNA oxidation, 2 μL of test compounds dissolved in ethanol were added into an Eppendorf tube and the solvent was evaporated under a nitrogen stream. To the tube 2 μL of distilled water were added, followed by thorough vortexing for 1 min. The following reagents were then added to the tube in the order as stated: 2 μL of PBS (pH7.4), 2 μL of supercoiled pBR322 DNA, 2 μL of H2O2 and 2 μL of Fe2SO4. The mixture (10 μL) containing 1 μM test compounds, 0.1M PBS, 10 μg/ml DNA, 0.2 mM H2O2 and 0.1 mM Fe2SO4 (final concentration/assay) was incubated at 37° C. for 1 hour.
After incubation, 1 μL of loading dye (0.25% bromophenol blue/0.25% xylene cyanol/50% glycerol) was added, and the whole mixture was loaded onto an agarose gel. […] The images were analyzed using AlphaEase stand-alone software (Alpha Innotech Co., San Leandro, Calif.) and the intensity or density of the bands (obtained from densitometer) was used as the indicator of concentration of the native (supercoiled) and nicked DNA fractions. Antioxidant activity was calculated as DNA retention according to the following equation: % retention=100×(native DNAsample/native DNAblank) where, DNAsample and DNAblank are normalized concentrations of native supercoiled DNA in total DNA for sample groups and blank, respectively. […]

A further assay relates to iNOS. The experiment in a line: iNOS protein expression in LPS-stimulated RAW 264.7 macrophages (western blot). Type of assay: cell-based, murine. Particulars: LPS 100 ng/ml, RAW 264.7, western blot; 20 and 40 μM for 1a-1c. As to the method:
RAW 264.7 cells were cultured in Rosewell Park Memorial Institute (RPMI) 1640 media (without phenol red) supplemented with 10% endotoxin-free, heat-inactivated fetal calf serum, 100 units/ml penicillin, and 100 μg/ml streptomycin. When the cells reached a density of 2-3×10^6 cells/ml, they were activated by incubation in a medium containing E. coli lipopolysaccharide (LPS) (100 ng/ml). Various concentrations of compounds of the disclosure in dimethyl sulphoxide (DMSO) were added together with LPS. Cells were treated with 0.05% DMSO as the vehicle control. The stimulated murine macrophage cell line RAW 264.7 cells were washed with PBS and lysed in an ice-cold RIPA buffer (Tris-HCl, pH 7.2, 25 mM; 0.1% SDS; 1% Triton X-100; 1% sodium deoxycholate; 0.15 M NaCl; 1 mM EDTA) containing 1 mM phenylmethyl sulphonyl fluoride (PMSF), 10 μg/mL aprotinin, 1 mM sodium ortho-vanadate, and 5 μg/mL leupeptin. Protein concentrations were determined using the BCA method (Pierce, Rockford, Ill.). The samples (50 μg of protein) were mixed with 5-fold of sample buffer containing 0.3 M Tris-HCl (pH 6.8), 25% 2-mercaptoethanol, 12% sodium dodecyl sulphate (SDS), 25 mM EDTA, 20% glycerol, and 0.1% bromophenol blue. The mixtures were boiled at 100° C. for 5 min, prerun on a stacking gel, and then resolved by 12% SDS-polyacrylamide minigels at a constant current of 20 mA. For western blot, proteins on the gel were electro-transferred onto a […] immobile polyvinylidene fluoride (PVDF) membrane with a transfer buffer composed of 25 mM Tris-HCl (pH 8.9), 192 mM glycine, and 20% methanol, as described by Pan et al. (2000). […] The densities of the bands were quantitated using a densitometer (AlphaImager 2200 System). […] (7b) Inhibition Against LPS-Induced NO Production in RAW 264.7 Macrophage The LPS-induced NO production by the macrophages was determined as nitrite concentration in the culture medium according to the Griess reaction. […] The absorbance of the mixture at 550 nm was measured with an ELISA plate reader (Dynatech MR-7000; Dynatech Laboratories, Chantilly, Va., USA). […]
(In general: A western blot detects proteins with antibodies after separation by electrophoresis.)

The structures appear in SMILES notation. pIC50: −log10 of the molar value. Like-named read-outs stand apart in the source and are kept apart here.

As to `CCCCCCCCCCCCCCCCCC(=O)Oc1cc(C(=O)OC2Cc3c(O)cc(O)cc3OC2c2cc(OC(=O)CCCCCCCCCCCCCCCCC)c(O)c(OC(=O)CCCCCCCCCCCCCCCCC)c2)cc(OC(=O)CCCCCCCCCCCCCCCCC)c1O` (stereo not drawn) [Compound 1a, EGCG stearate], in assay [1] (Mus musculus, RAW264.7), the pIC50 was 4.39.
Turning to `CCC=CCC=CCC=CCC=CCC=CCCCC(=O)Oc1cc(C(=O)OC2Cc3c(O)cc(O)cc3OC2c2cc(OC(=O)CCCC=CCC=CCC=CCC=CCC=CCC)c(O)c(OC(=O)CCCC=CCC=CCC=CCC=CCC=CCC)c2)cc(OC(=O)CCCC=CCC=CCC=CCC=CCC=CCC)c1O` (stereo not drawn) [Compound 1b], in the assay with supercoiled pBR322 DNA, the “Antioxidant activity against hydroxyl radical-induced DNA scission” value is given as “the most potent antioxidant among all”. The “Inhibition of iNOS protein expression” value in the assay on iNOS is reported as “strong dose-dependent relationship in suppressing the cytokine production”.
As for `CCC=CCC=CCC=CCC=CCC=CCC=CCCC(=O)Oc1cc(C(=O)OC2Cc3c(O)cc(O)cc3OC2c2cc(OC(=O)CCC=CCC=CCC=CCC=CCC=CCC=CCC)c(O)c(OC(=O)CCC=CCC=CCC=CCC=CCC=CCC=CCC)c2)cc(OC(=O)CCC=CCC=CCC=CCC=CCC=CCC=CCC)c1O` (stereo not drawn) [Compound 1c], the “Inhibition of iNOS protein expression” value in the assay on iNOS is “the most potent in inhibiting the induction of iNOS expression”.
Take `O=C(O[C@@H]1Cc2c(O)cc(O)cc2O[C@@H]1c1cc(O)c(O)c(O)c1)c1cc(O)c(O)c(O)c1` [EGCG, Epigallocatechin gallate, reference compound]: the negative logarithm of the IC50 (pIC50) was 3.99 in assay [1] (Mus musculus, RAW264.7) and 3.99 in assay [1].
